Entries after “also recorded” stand apart in the source; their conditions may differ.
system: target microorganisms; test: Screen of synthesized peptides for binding to target microorganisms (targeting peptides, Tables 2 and 3); conditions: microorganism(s) the targeting peptide was identified as binding to (Table 3)
Experimental: Once noted, these peptides were batch synthesized on a multiplex peptide synthesizer, yielding 5-10 mg of each peptide that could readily be screened for biological activity (e.g., binding activity and/or antimicrobial activity.
Other suitable targeting peptides include the peptides that have been identified as binding to particular target organisms as shown in Table 3 and/or Table 4.

Substance | Target(s)
1T-26 (LTILPTTFFAIIVPILAVAFIAYSGFKIKGIVEHKDQW; synthetic novel tartgeting peptide IT-26) | jeikeium; also recorded: C. xerosis; also recorded: C. striatum; also recorded: P. aeruginosa; also recorded: S. mutans; also recorded: S. aureus; also recorded: S. epidermidis; also recorded: Corynebacterium
1T-22 (VPLDDGTRRPEVARNRDKDRED; synthetic novel tartgeting peptide IT-22) | S. epidermidis; also recorded: P. aeruginosa
1T-36 (VYRHLRFIDGKLVEIRLERK; synthetic novel tartgeting peptide IT-36) | S. aureus; also recorded: S. epidermidis; also recorded: C. jeikeium; also recorded: C. xerosis; also recorded: C. striatum; also recorded: P. aeruginosa
1T-117 (GPGVVGPAPFSRLPAHALNL; synthetic novel tartgeting peptide IT-117) | S. mutans
1T-131 (DEVWKMLGI; synthetic novel tartgeting peptide IT-131) | A. naeslundii, F. nucleatum,; also recorded: P. gingivalis,; also recorded: T. denticolaS. gordonii,; also recorded: S. mitis, S. mutans, S. oralis,; also recorded: S. salivarious, S. sanguinis
1T-91 (TSVRPGAAGAAVPAGAAGAAGAGWRWP; synthetic novel tartgeting peptide IT-91) | S. mitis, S. mutans, S. oralis,; also recorded: S. sanguinis
1T-139 (AVAGAAVGALLGNDARSTAVGAAIGGALGAGAGELTKNK; synthetic novel tartgeting peptide IT-139) | A. naeslundiiS. gordonii,; also recorded: S. mitis, S. mutans, S. oralis
1T-55 (NHKTLKEWKAKWGPEAVESWATLLG; synthetic novel tartgeting peptide IT-55) | C. xerosis; also recorded: P. aeruginosa
1T-157 (RRFRKTTENREKSKNKKAVLGLSTTSTASY; synthetic novel tartgeting peptide IT-157) | A. naeslundii, F. nucleatum,; also recorded: P. gingivalis,; also recorded: T. denticolaS. gordonii,; also recorded: S. mitis, S. mutans, S. oralis,; also recorded: S. salivarious, S. sanguinis
1T-13 (FRSPCINNNSLQPPGVYPAR; synthetic novel tartgeting peptide IT-13) | S. aureus; also recorded: S. epidermidis; also recorded: P. aeruginosa
1T-40 (QRVSLWSEVEHEFR; synthetic novel tartgeting peptide IT-40) | S. mutans; also recorded: P. aeruginosa
1T-154 (YFSFLEIVGMARR; synthetic novel tartgeting peptide IT-154) | P. gingivalis
1T-37 (YIVGALVILAVAGLIYSMLRKA; synthetic novel tartgeting peptide IT-37) | S. mutans; also recorded: S. aereus; also recorded: S. epidermidis; also recorded: C. jeikeium; also recorded: C. xerosis; also recorded: C. striatum; also recorded: P. aeruginosa
1T-151 (SVRAVKPIDEIVAWHFPGDFIVN; synthetic novel tartgeting peptide IT-151) | A. naeslundii, F. nucleatum,; also recorded: P. gingivalis,; also recorded: T. denticolaS. gordonii,; also recorded: S. mitis, S. mutans, S. oralis,; also recorded: S. salivarious, S. sanguinis
1T-163 (MENILIYIPMVLSPFGSGILLFLGKDRRYML; synthetic novel tartgeting peptide IT-163) | A. naeslundii, F. nucleatum,; also recorded: P. gingivalis; also recorded: S. epidermidis,; also recorded: S. gordonii, S. mitis, S. mutans,; also recorded: S. oralis, S. salivarious,; also recorded: S. sanguinis
1T-96 (VAGACAQPFGGQ; synthetic novel tartgeting peptide IT-96) | S. gordonii, S. mitis, S. mutans,; also recorded: S. oralis, S. sanguinis
1T-161 (NKVLQVEVMWDGSVVGRPAGVISIKSSKKG; synthetic novel tartgeting peptide IT-161) | A. naeslundii, F. nucleatum,; also recorded: P. gingivalis; also recorded: S. epidermidis,; also recorded: S. gordonii, S. mitis, S. mutans,; also recorded: S. oralis, S. salivarious,; also recorded: S. sanguinis
1T-115 (LLIERFSNHH; synthetic novel tartgeting peptide IT-115) | A. naeslundii, F. nucleatum,; also recorded: P. gingivalis; also recorded: S. epidermidis,; also recorded: S. gordonii, S. mitis, S. mutans,; also recorded: S. oralis, S. salivarious,; also recorded: S. sanguinis
1T-160 (AQYKYINKLLN; synthetic novel tartgeting peptide IT-160) | A. naeslundii, F. nucleatum,; also recorded: P. gingivalis,; also recorded: T. denticolaS. gordonii,; also recorded: S. mitis, S. mutans, S. oralis,; also recorded: S. salivarious, S. sanguinis
1T-87 (EAVGQDLVDAHHP; synthetic novel tartgeting peptide IT-87) | S. mitis, S. mutans, S. oralis
1T-156 (GRFQISIRGEEKSKVKVQGKGTFTDRNTT; synthetic novel tartgeting peptide IT-156) | A. naeslundii, F. nucleatum,; also recorded: P. gingivalis,; also recorded: T. denticolaS. gordonii,; also recorded: S. mitis, S. mutans, S. oralis,; also recorded: S. salivarious, S. sanguinis
1T-38 (VMFVLTRGRSPRPMIPAY; synthetic novel tartgeting peptide IT-38) | S. mutans; also recorded: S. aereus; also recorded: S. epidermidis; also recorded: C. jeikeium; also recorded: C. xerosis; also recorded: C. striatum; also recorded: P. aeruginosa

Substance | Target(s)
1T-70 (NRQAQGERAHGEQQG; synthetic novel tartgeting peptide IT-70) | S. aureus; also recorded: C. jeikeium; also recorded: P. aeruginosa
1T-54 (RWVSCNPSWRIQ; synthetic novel tartgeting peptide IT-54) | S. epidermidis; also recorded: C. xerosis; also recorded: C. striatum; also recorded: P. aeruginosa
1T-144 (IIELHPKSWTQDWRCSFL; synthetic novel tartgeting peptide IT-144) | A. naeslundii, F. nucleatum,; also recorded: P. gingivalis,; also recorded: T. denticolaS. gordonii,; also recorded: S. mitis, S. mutans, S. oralis,; also recorded: S. salivarious, S. sanguinis
1T-52 (DEYPAKLPLSDKGATEPRRH; synthetic novel tartgeting peptide IT-52) | S. aureus; also recorded: C. xerosis; also recorded: P. aeruginosa
1T-141 (KKFIILLFILVQGLIFSATKTLSDIIAL; synthetic novel tartgeting peptide IT-141) | F. nucleatum, P. gingivalis; also recorded: S. epidermidis,; also recorded: S. gordonii, S. mitis, S. mutans,; also recorded: S. oralis, S. sanguinis
1T-89 (HEDDKRRGMSVEVLGFEVVQHEE; synthetic novel tartgeting peptide IT-89) | S. mitis, S. mutans
1T-111 (GRLSRREEDPATSIILLRGAYRMAVF; synthetic novel tartgeting peptide IT-111) | A. naeslundii, F. nucleatum,; also recorded: P. gingivalis; also recorded: S. epidermidis,; also recorded: S. gordonii, S. mitis, S. mutans,; also recorded: S. oralis, S. salivarious,; also recorded: S. sanguinis
1T-158 (WENKPSPLGSIKKLQGLVYRLIGYRHFWV; synthetic novel tartgeting peptide IT-158) | A. naeslundii, F. nucleatum,; also recorded: P. gingivalis; also recorded: S. epidermidis,; also recorded: S. gordonii, S. mitis, S. mutans,; also recorded: S. oralis, S. salivarious,; also recorded: S. sanguinis
1T-93 (AMRSVNQA; synthetic novel tartgeting peptide IT-93) | S. epidermidis, S. gordonii,; also recorded: S. mitis, S. mutans,; also recorded: S. oralis, S. sanguinis
1T-138 (YPNEYCIFLENLSLEELKEIKAINGETLNLEEIINERKNLKD; synthetic novel tartgeting peptide IT-138) | A. naeslundii, F. nucleatum,; also recorded: P. gingivalis; also recorded: S. epidermidis,; also recorded: S. gordonii, S. mitis, S. mutans,; also recorded: S. oralis, S. salivarious,; also recorded: S. sanguinis
1T-119 (SPATQKAPTRAQPSRAPVQDCGDGRPTAAPDDVERLSPR; synthetic novel tartgeting peptide IT-119) | S. gordonii, S. mitis, S. mutans,; also recorded: S. oralis
1T-16 (IDMR; synthetic novel tartgeting peptide IT-16) | P. aeruginosa
1T-159 (IFSLHHFALICSEMGTFAVSKRAKYKWEVL; synthetic novel tartgeting peptide IT-159) | P. gingivalis
1T-11 (RISE; synthetic novel tartgeting peptide IT-11) | S. mutans; also recorded: S. epidermidis; also recorded: P. aeruginosa
1T-47 (VIKISVPGQVQMLIP; synthetic novel tartgeting peptide IT-47) | S. mutans; also recorded: S. epidermidis; also recorded: P. aeruginosa
1T-56 (LALIGAGIWMIRKG; synthetic novel tartgeting peptide IT-56) | C. xerosis; also recorded: P. aeruginosa
1T-76 (EMRLSKFFRDFILWRKK; synthetic novel tartgeting peptide IT-76) | S. pneumoniae
1T-25 (VGLDVSVLVLFFGLQLLSVLLGAMIR; synthetic novel tartgeting peptide IT-25) | S. aureus; also recorded: S. epidermidis; also recorded: C. xerosis; also recorded: C. striatum; also recorded: P. aeruginosa
1T-164 (KKSHSQGKRKLKDLNSAYKIDNQLHYALR; synthetic novel tartgeting peptide IT-164) | A. naeslundii, F. nucleatum,; also recorded: P. gingivalis; also recorded: S. epidermidis,; also recorded: S. gordonii, S. mitis, S. mutans,; also recorded: S. oralis, S. salivarious,; also recorded: S. sanguinis
1T-18 (YSKTLHFAD; synthetic novel tartgeting peptide IT-18) | S. aureus; also recorded: S. epidermidis; also recorded: C. striatum; also recorded: P. aeruginosa
1T-64 (QTVHHIHMHVLGQRQMHWPPG; synthetic novel tartgeting peptide IT-64) | S. aureus; also recorded: S. epidermidis; also recorded: C. jeikeium; also recorded: C. xerosis; also recorded: C. striatum; also recorded: P. aeruginosa

From US8389679B2, “Targeted antimicrobial moieties” (priority 2009, dated 2013)
